“And” between values parts separate entries of the source, which are not always exact repeats. Equal values may be shown once. Inconclusive results and toxic doses are left out. No stated cut-off is given here; in the data, active means T/C of 150% or more; inactive means T/C below 125%.
Tested on: L1210 leukemia ip in BDF1 mice, survival T/C
Experiment: NCI In Vivo Anticancer Drug Screen. Data for tumor model L1210 Leukemia (intraperitoneal) in B6D2F1 (BDF1) mice
Conditions: endpoint: mean survival time, higher = longer survival
Summary of the method: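 Read-out is survival time, reported as the treated-group measurement over the vehicle-control measurement.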

[1] = dose: 100.0 mg/kg/injection, schedule: Q01DX001 (ip), vehicle: saline
[2] = dose: 100.0 mg/kg/injection, schedule: Q01DX001 (ip), vehicle: carboxymethylcellulose (CMC)
[3] = dose: 200.0 mg/kg/injection, schedule: Q01DX001 (ip), vehicle: carboxymethylcellulose (CMC)
[4] = dose: 400.0 mg/kg/injection, schedule: Q01DX001 (ip), vehicle: carboxymethylcellulose (CMC)
[5] = dose: 100.0 mg/kg/injection, schedule: Q01DX009 (ip), vehicle: Klucel (hydroxypropylcellulose) (HPC)
[6] = dose: 200.0 mg/kg/injection, schedule: Q01DX009 (ip), vehicle: Klucel (hydroxypropylcellulose) (HPC)
[7] = dose: 400.0 mg/kg/injection, schedule: Q01DX009 (ip), vehicle: Klucel (hydroxypropylcellulose) (HPC)
[8] = dose: 100.0 mg/kg/injection, schedule: Q04DX003 (ip), vehicle: Klucel (hydroxypropylcellulose) (HPC)
[9] = dose: 200.0 mg/kg/injection, schedule: Q04DX003 (ip), vehicle: Klucel (hydroxypropylcellulose) (HPC)
[10] = dose: 400.0 mg/kg/injection, schedule: Q04DX003 (ip), vehicle: Klucel (hydroxypropylcellulose) (HPC)
[11] = dose: 100.0 mg/kg/injection, schedule: Q01DX001 (ip), vehicle: Klucel (hydroxypropylcellulose) (HPC)
[12] = dose: 200.0 mg/kg/injection, schedule: Q01DX001 (ip), vehicle: Klucel (hydroxypropylcellulose) (HPC)
[13] = dose: 400.0 mg/kg/injection, schedule: Q01DX001 (ip), vehicle: Klucel (hydroxypropylcellulose) (HPC)
[14] = dose: 25.0 mg/kg/injection, schedule: Q01DX009 (ip), vehicle: saline with Tween-80
[15] = dose: 50.0 mg/kg/injection, schedule: Q01DX009 (ip), vehicle: saline with Tween-80
[16] = dose: 50.0 mg/kg/injection, schedule: Q01DX001 (ip), vehicle: saline

Measured: T/C

ClCc1ccc(OCc2ccccc2)c(OCc2ccccc2)c1
inactive: dose: 100.0 mg/kg/injection, schedule: Q04DX003 (ip), vehicle: water 104 % of control | dose: 200.0 mg/kg/injection, schedule: Q04DX003 (ip), vehicle: water 100 % of control | dose: 400.0 mg/kg/injection, schedule: Q04DX003 (ip), vehicle: water 102 % of control

CC(=O)NC1C(OC(=O)c2ccccc2)OC(CO)C(O)C1OC(=O)c1ccccc1 (stereo not drawn)
inactive: dose: 100.0 mg/kg/injection, schedule: Q01DX001 (ip), vehicle: saline with Tween-80 101 % of control | dose: 200.0 mg/kg/injection, schedule: Q01DX001 (ip), vehicle: saline with Tween-80 105 % of control | dose: 400.0 mg/kg/injection, schedule: Q01DX001 (ip), vehicle: saline with Tween-80 94 % of control

C[N+](C)=C(Cl)Cl
inactive: [1] 97 % of control | dose: 200.0 mg/kg/injection, schedule: Q01DX001 (ip), vehicle: saline 97 % of control | dose: 400.0 mg/kg/injection, schedule: Q01DX001 (ip), vehicle: saline 95 % of control

O=S(c1cc(Br)ccc1O)c1cc(Br)ccc1O
inactive: [2] 98 % of control | [3] 93 % of control | [4] 90 % of control

CN=Cc1ccccc1
inactive: dose: 50.0 mg/kg/injection, schedule: Q04DX003 (ip), vehicle: saline with Tween-80 91 % of control | dose: 100.0 mg/kg/injection, schedule: Q04DX003 (ip), vehicle: saline with Tween-80 94 % of control

CCOC(=O)Nc1cc(NC(c2ccccc2)c2ccccc2)c(N)c(N)n1
inactive: [2] 102 % of control | [5] 98 % of control | [3] 122 % of control | [6] 98 % of control | [4] 107 % of control | [7] 91 % of control

CCOC(=O)CCC(C)=O
inactive: dose: 100.0 mg/kg/injection, schedule: Q01DX009 (ip), vehicle: saline 102 % of control | dose: 200.0 mg/kg/injection, schedule: Q01DX009 (ip), vehicle: saline 96 % of control | dose: 400.0 mg/kg/injection, schedule: Q01DX009 (ip), vehicle: saline 96 % of control

CC(NC(=O)OCc1ccccc1)C(=O)O (stereo not drawn)
inactive: [5] 97 % of control | dose: 100.0 mg/kg/injection, schedule: Q04DX002 (ip), vehicle: Klucel (hydroxypropylcellulose) (HPC) 95 % of control | [8] 100 % of control | [6] 90 % of control | dose: 200.0 mg/kg/injection, schedule: Q04DX002 (ip), vehicle: Klucel (hydroxypropylcellulose) (HPC) 94 % of control | [9] 100 % of control | [7] 97 % of control | dose: 400.0 mg/kg/injection, schedule: Q04DX002 (ip), vehicle: Klucel (hydroxypropylcellulose) (HPC) 97 % of control | [10] 95 % of control

CC1(C)OC2OC(C3COC(=O)O3)C(O)C2O1 (stereo not drawn)
inactive: [11] 114 % of control | [12] 101 % of control | [13] 96 % of control

COc1nc(-c2ccccc2)cn[n+]1C
inactive: dose: 33.0 mg/kg/injection, schedule: Q01DX001 (ip), vehicle: saline with Tween-80 103 % of control | dose: 50.0 mg/kg/injection, schedule: Q01DX001 (ip), vehicle: saline with Tween-80 107 % of control | dose: 75.0 mg/kg/injection, schedule: Q01DX001 (ip), vehicle: saline with Tween-80 113 % of control

NC(=S)N1CCCC1
inactive: [8] 93 % of control | [9] 96 % of control | [10] 93 % of control

CCOC(=O)NCC(CCCCN(C)C)(c1cccc2ccccc12)C(C)CC (stereo not drawn)
inactive: dose: 12.5 mg/kg/injection, schedule: Q01DX009 (ip), vehicle: saline with Tween-80 96 % of control | [14] 97 % of control | [15] 100 % of control

CCCCCC#CC(=O)O
inactive: [5] 105 % of control | [8] 98 % of control | [6] 106 % of control | [9] 98 % of control | [7] 90 % of control | [10] 109 % of control

CCCCCCC1=NC(C)(C)CO1
inactive: [14] 102 % of control | [15] 97 % of control | dose: 50.0 mg/kg/injection, schedule: Q04DX003 (ip), vehicle: saline 99 % of control | dose: 100.0 mg/kg/injection, schedule: Q01DX009 (ip), vehicle: saline with Tween-80 102 % of control | dose: 100.0 mg/kg/injection, schedule: Q04DX003 (ip), vehicle: saline 97 % of control | dose: 200.0 mg/kg/injection, schedule: Q01DX009 (ip), vehicle: saline with Tween-80 102 % of control | dose: 200.0 mg/kg/injection, schedule: Q04DX003 (ip), vehicle: saline 91 % of control

O=C(NCc1ccc(S(=O)(=O)F)cc1)Oc1ccc([N+](=O)[O-])cc1
inactive: dose: 25.0 mg/kg/injection, schedule: Q01DX009 (ip), vehicle: other 100 % of control | dose: 50.0 mg/kg/injection, schedule: Q01DX009 (ip), vehicle: other 88 % of control | dose: 100.0 mg/kg/injection, schedule: Q01DX009 (ip), vehicle: other 98 % of control and 87 % of control

CCSc1nc2nccnc2c(=O)[nH]1
inactive: [5] 98 % of control | [8] 97 % of control | [6] 102 % of control | [9] 92 % of control | [7] 102 % of control | [10] 92 % of control

O=S(=O)(CCl)OCCCCOS(=O)(=O)CCl
inactive: dose: 31.5 mg/kg/injection, schedule: Q01DX009 (ip), vehicle: saline 108 % of control and 109 % of control | dose: 31.5 mg/kg/injection, schedule: Q01DX015 (ip), vehicle: saline 112 % of control | [16] 100 % of control | dose: 54.0 mg/kg/injection, schedule: Q01DX009 (ip), vehicle: saline 120 % of control and 124 % of control | dose: 90.0 mg/kg/injection, schedule: Q01DX009 (ip), vehicle: saline 124 % of control | dose: 90.0 mg/kg/injection, schedule: Q01DX015 (ip), vehicle: saline 124 % of control | [1] 111 % of control | dose: 100.0 mg/kg/injection, schedule: Q01DX015 (ip), vehicle: saline 108 % of control | dose: 133.0 mg/kg/injection, schedule: Q01DX001 (ip), vehicle: saline 104 % of control and 107 % of control and 121 % of control | dose: 150.0 mg/kg/injection, schedule: Q01DX009 (ip), vehicle: saline 104 % of control | dose: 200.0 mg/kg/injection, schedule: Q01DX015 (ip), vehicle: saline 97 % of control | dose: 300.0 mg/kg/injection, schedule: Q01DX001 (ip), vehicle: saline 104 % of control and 121 % of control

Nc1c(Cl)ncnc1Nc1ccc([N+](=O)[O-])cc1
inactive: [11] 89 % of control | [12] 94 % of control | [13] 92 % of control

CC(C)c1ccc(NC(=S)NC(=O)c2ccccc2)cc1
inactive: dose: 100.0 mg/kg/injection, schedule: Q04DX002 (ip), vehicle: gum acacia 103 % of control | dose: 200.0 mg/kg/injection, schedule: Q04DX002 (ip), vehicle: gum acacia 100 % of control | dose: 400.0 mg/kg/injection, schedule: Q04DX002 (ip), vehicle: gum acacia 92 % of control

CC1OC(O[C@H]2C[C@](O)(C(C)O)Cc3c(O)c4c(c(O)c32)C(=O)c2c(O)cccc2C4=O)CC(NC=O)C1O (stereo partly drawn)
inactive: dose: 0.05 mg/kg/injection, schedule: Q01DX009 (ip), vehicle: saline 116 % of control | dose: 0.1 mg/kg/injection, schedule: Q01DX001 (ip), vehicle: saline 105 % of control | dose: 0.1 mg/kg/injection, schedule: Q03DX003 (ip), vehicle: saline 112 % of control | dose: 0.2 mg/kg/injection, schedule: Q01DX001 (ip), vehicle: saline 116 % of control | dose: 0.2 mg/kg/injection, schedule: Q03DX003 (ip), vehicle: saline 119 % of control | dose: 0.8 mg/kg/injection, schedule: Q01DX009 (ip), vehicle: saline 119 % of control

NC1=NC=NC(c2ccccc2)N1c1ccccc1F (stereo not drawn)
inactive: dose: 25.0 mg/kg/injection, schedule: Q01DX001 (ip), vehicle: saline 101 % of control | [16] 96 % of control | [1] 104 % of control

From PubChem BioAssay AID248 (DTP/NCI, 2004)
